In a melting point compilation (Tetko et al.; mined from patent text by program, amines drawn as free bases though some values may be those of a salt):

melting point | SMILES
180 to 184 °C | N#Cc1ccc(-c2cn(-c3ccc(I)cc3)c(SCc3ccccn3)n2)cc1
308 to 314 °C | c1ccc2c(c1)c1nncn1c1c(-c3noc(C4CC4)n3)ncn21
135 to 136 °C | CSc1nccc(Oc2ccc(NC(=O)c3cccc(OC(C)(C)C)c3)c3ccccc23)n1
145 to 150 °C | COn1c(C#N)c(Br)c(Br)c1-c1ccc(Cl)c(Cl)c1
84 to 86 °C | O=C(CCc1ccccc1)C(Cc1ccccc1)(Cc1ccccc1)C(=O)CCc1ccccc1
126 °C | O=C1C(F)N(c2ccc(Oc3ccccc3)cc2)C(=S)N1c1ccccc1 (stereo not given)
55 to 58 °C | CCOC(=O)C(Oc1ccc(C(=O)CBr)cc1)C(=O)OCC
131 to 134 °C | Cc1c(-c2ccc(OCc3ccccc3)cc2)n(Cc2ccc(OCCBr)cc2)c2ccc(OCc3ccccc3)cc12
206 to 208 °C | NC(=O)c1ccc(-c2ccc3nnn(Cc4cc5cccnc5cc4F)c3n2)cc1F
89 to 100 °C | NC(=O)N(O)CC1CC(c2ccco2)C1 (stereo not given)
119 to 120 °C | CNn1c(SC)nnc(-c2ccccc2)c1=O
295 to 302 °C | COCCn1cc2c(=O)[nH]c(=O)[nH]c2n1
124 to 125 °C | CCC(C)(CC)CC(=O)C(OC(=C1C(=O)N(C(N)=O)c2cc(Cl)c(F)cc21)c1cccs1)C(=O)O (stereo not given)
210 °C | COCc1nc2c(OC)ccc(C(O)(Cc3ccncc3)Cc3ccncc3)c2[nH]1
123 to 125 °C | COc1cc(N)c(Cl)cc1C(=O)NCC1CCN(CCOCc2ccccc2)CC1
196 to 201 °C | CC(C)(C)c1cc(N2C(=O)c3ccccc3C2=O)cc(C(C)(C)C)c1O
154 to 156 °C | CC1(C)CCC2=C(O1)c1ccccc1C(=O)C2=O
193 °C | CCOc1cc(N(CC)CC)ccc1C1(c2c(C)n(CC)c3ccccc23)OC(=O)c2ccccc21 (stereo not given)
123 to 124 °C | CN(Cc1ccc(OC(F)(F)F)cc1)C(=O)OC[C@@]1(C)Cn2cc([N+](=O)[O-])nc2O1
122 to 123 °C | CCCc1nccn1NCc1cc(C(C)(C)C)c(O)c(C(C)(C)C)c1

melting point | SMILES
256 to 258 °C | O=C(O)c1cn2c3c(cccc3c1=O)CCC2
215 °C | CN(C)c1cccc(C(=O)Nc2ccc3ccc(Cl)nc3n2)c1
92 to 94 °C | COC(=O)NNc1ccccc1OCCSC
203 to 205 °C | O=c1[nH]ccc2nc(C(F)(F)F)nn12
249 to 250 °C | O=c1c2c(nc3ccc(Cl)cn13)C(=Cc1ccccc1Cl)CC2
41 to 43 °C | CCC(=O)c1ccc(OCCCCl)cc1
155 to 158 °C | CN(C)CCNC(=S)Nc1ccc(-c2nnc(CSCCOc3ccccc3)o2)cc1
129 to 132 °C | CCN(CC)CCn1nc2c3c(cccc31)C(=O)c1c(NCCNCCO)cccc1-2
184 to 196 °C | Nc1cccc(-c2ccc(-c3cccc(CN4CC5C(N)C5C4)c3)cc2)n1 (stereo not given)
82 to 83 °C | CCOC(=O)C1Cc2[nH]c3ccc(OC)cc3c2C1 (stereo not given)
202 to 205 °C | Cc1cc(-c2coc3c(-c4ccc(F)cc4)c(-c4ccc(S(C)(=O)=O)cc4)nn23)ccc1Cl
101 °C | CCOC(=O)/C=C/c1ccc(OCCOC)cc1OCc1ccc(Cl)cc1Cl
138 to 140 °C | CC(C)n1cc(-c2nn(-c3cccc(C(F)(F)F)c3)ccc2=O)c(-c2ccccc2)n1
153 to 155 °C | O=C(NCC(=O)c1ccco1)c1ccc(F)cc1
84 to 85 °C | OCc1ccc(OCc2ccccc2)cc1OCc1ccccc1
132 to 140 °C | N#CC1CCC(c2ccc(N)cc2)CC1 (stereo not given)
84 to 85 °C | CC(C(=O)CC#N)c1ccc(-c2ccccc2)c(F)c1 (stereo not given)
122 to 124 °C | CCC(CCCc1cccnc1)NC(=O)C(O)c1ccccc1 (stereo not given)
179 to 181 °C | CCCc1[nH]c2cc(C(N)=O)ccc2c1C(=O)C=C(C)C

SMILES | melting point
O=C(OCC1CC1)c1ncn2c1[C@@H]1CCCN1C(=O)c1c(Cl)cccc1-2 | 195 to 196 °C
